In patent publication US20180369244A1, “BTK Inhibitors to Treat Solid Tumors Through Modulation of the Tumor Microenvironment” (Acerta Pharma B.V., priority 2014, published 2018):

How the values were obtained:
[1] = test system: GPVI platelet aggregation; assay: GPVI platelet aggregation (convulxin-induced); format: cell-based, human
Protocol: GPVI platelet aggregation was measured for Formula (II) and Formula (X) (ibrutinib). Blood was obtained from untreated humans, and platelets were purified from […] by centrifugation. Cells were resuspended to a final concentration of […] in buffer containing 145 mmol/L NaCl, 10 mmol/L HEPES, 0.5 mmol/L Na2HPO4, 5 mmol/L KCl, 2 mmol/L MgCl2, 1 mmol/L CaCl2, and 0.1% glucose, at pH 7.4. Stock solutions of Convulxin (CVX) GPVI were prepared on the day of experimentation and added to platelet suspensions 5 minutes (37° C., 1200 rpm) before the induction of aggregation. Aggregation was assessed with a Chronolog Lumi-Aggregometer (model 540 VS; Chronolog, Havertown, Pa.) and permitted to proceed for 6 minutes after the addition of agonist. The results are reported as maximum percent change in light transmittance from baseline with platelet buffer used as a reference.
In FIG. 23, the results of CVX-induced (250 ng/mL) human platelet aggregation results before and 15 minutes after administration of the BTK inhibitors to 6 healthy individuals are shown.

[2] = test system: human platelet-mediated thrombosis; conditions: mouse, in vivo
Protocol: Injury to the vessel wall of arterioles ([…] diameter) was performed using a pulsed nitrogen dye laser (440 nm, Photonic Instruments) applied through a 20× water-immersion Olympus objective (LUMPlanF1, 0.5 numerical aperature (NA)) of a Zeiss Axiotech vario microscope. […] The extent of thrombus formation was assessed for 2 minutes after injury and the area (μm^2) of coverage determined (Image IQ, Andor Technology).
The BTK inhibitor-treated human platelets were fluorescently labeled and infused continuously through a catheter inserted into the femoral artery.

[3] = test system: orthotopic pancreatic cancer (KPC cell line); assay: Orthotopic pancreatic cancer model; format: in vivo, C57BL/6 mice; conditions: 15 mg/kg oral
Protocol: Cell line derived from KrasGl2D;Trp53R172H;Pdx1-Cre (KPC) mice were orthotopically implanted into the head of the pancreas after 35 passages. Based on the mice background from where the cell lines were generated, 1×10^6 cells were injected in C57BL/6 mice. Throughout the experiment, animals were provided with food and water ad libitum and subjected to a 12-h dark/light cycle. Animal studies were performed in accordance with the U.S. Public Health Service “Guidelines for the Care and Use of Laboratory Animals” (IACUC). After euthanization, pancreatic tumors were dissected out, weighed and single cell suspensions were prepared for flow cytometry analysis.

[4] = test system: pancreatic cancer in KPC mice; assay: KPC pancreatic cancer model (spontaneous tumors); format: in vivo; conditions: 15 mg/kg BID oral
Protocol: The KPC mouse model recapitulates many of the molecular, histopathologic, and clinical features of human disease (Westphalen and Olive, Cancer J. 2012, 18, 502-510). Combination therapy with gemcitabine was also evaluated in this model. Mice were enrolled after identification of spontaneously appearing tumors in the pancreas that were >100 mm^3 (as assessed by high-resolution ultrasonography).

NK cells [5] = assay: Antibody-dependent NK cell degranulation (CD107a flow cytometry); format: cell-based, human
Source text: Cell culture conditions were as follows. […] The HER18 cells were maintained in DEM supplemented with fetal bovine serum, penicillin-streptomycin and. Prior to assay, HER18 cells were harvested using trypsin-EDTA, washed with phosphate-buffered saline (PBS) containing 5% serum and viable cells were counted. […] Cell preparations were washed and then subject to positive selection of CD5+CD19^+ CLL cells using magnetic beads (MACS, Miltenyi Biotech). Cell preparations were used fresh after selection. […] Removal of non NK cells was performed using negative selection by MACS separation. Freshly isolated NK cells were washed three times, enumerated, and then used immediately for ADCC assays.
Lytic granule release was determined as follows. […] Degranulation was evaluated via by flow cytometery by externalization of CD107a, a protein normally present on the inner leaflet of lytic granules, and gating on NK cells (CD3-CD16^+ lymphocytes). The percentage of CD107a positive NK cells was quantified by comparison with a negative control (isotype control, unstained cells/FMO). Control cultures (NK cells cultured without target cells, or NK, target cell co-cultures in the absence of appropriate monoclonal antibody) were also evaluated; all experiments were performed in triplicate.

[6] = Cardiovascular function study in telemeterized beagle dogs; format: in vivo; conditions: single doses through 30 mg/kg
Source text: Formula (II) was well tolerated in standard in vivo Good Laboratory Practices (GLP) studies of pharmacologic safety.

CYP3A4 = CYP3A4 (Homo sapiens, UniProt P08684); assay: Loss of parent drug as catalyzed by CYPs; format: in vitro ADME
Source text: (§1) No unique human metabolite was identified. Preliminary evaluations of metabolism in the plasma, bile, and urine of rats, dogs, and monkeys indicated metabolic processes of oxidation, glutathione binding, and hydrolysis.

[7] = Glutathione binding and depletion in vitro; format: in vitro ADME
Source text: as §1

B cell receptor = assay: Whole blood B cell receptor signalling, CD69 on CD19+ B cells; format: cell-based; conditions: 2 h incubation, anti-human IgD 18 h
Protocol: Blood from four healthy donors was incubated for 2 hours with the compounds shown over a concentration range, and then stimulated with anti-human IgD [10 μg/mL] for 18 hours. The mean fluorescent intensity (MFI) of CD69 (and CD86, data not shown) on gated CD19+ B cells was measured by flow cytometry. MFI values were normalized so that 100% represents CD69 level in stimulated cells without inhibitor, while 0% represents the unstimulated/no drug condition. […]

[8] = test system: BCR activation markers CD69 and CD86; assay: In vivo potency, CD69 and CD86 expression after IgM stimulation; design: species or system mice; conditions: oral gavage, 3 h post-dose
Source text: CD86 and CD69 are cell surface proteins that are BCR activation markers. […] BCR was stimulated with IgM and the expression of activation marker CD69 and CD86 are monitored by flow cytometry and to determine EC50 values.

BTK = target: T1, BTK (Mus musculus, UniProt P35991); assay: Molecular probe assay, BTK occupancy in MDSCs of tumor bearing PDA mice; format: in vivo; conditions: 15 mg/kg BID, Day 8, 4 hours post dose
T1 construct: endogenous in cells; host or cells: granulocytic and monocytic MDSCs from tumor-bearing PDA mice
Source text: A molecular probe assay was used to calculate the percent irreversible occupancy of total BTK.

CD8+ T cells = assay: Cytotoxic T cell (CTL) assay; format: cell-based; conditions: 500 nM
Protocol: CD8^+ T cells have at least two primary effector functions: (1) produce large amounts of IFN-γ (which activates macrophages), and (2) cytolytic activity. […] The targets were B lymphoblasts from lipopolysaccharide (LPS) treated cultures. The assay was performed by incubating different ratios of effectors:targets for 4 hours.

NK cells [9] = assay: Whole blood NK cell degranulation/ADCC assay, MEC-1 cells opsonised with obinutuzumab; format: cell-based, human; conditions: 1 h pretreatment, obinutuzumab 1 μg/mL, 4 h
Protocol: Degranulation in whole blood was performed as follows. […] Exponentially growing cells were used. […] A white blood cell (WBC) count of whole blood was performed. […] 170 μL aliquots of unmanipulated whole blood were incubated with 10 μL BTK inhibitors or X-VIVO 15 medium for one hour into a plate. […] The samples were placed in a 5% CO2 incubator for 4 hours at 37° C.
After 4 hours, the samples were mixed gently and 50 μL aliquots were removed from each well and placed in fluorescence-activated cell sorting (FACS) test tubes. A 20 μL aliquot of anti-CD56-APC antibody and anti-CD107a-PE antibody was added. The samples were incubated for 20 minutes at room temperature in the dark. An aliquot of 2 mL of FACS lysing solution (BD Biosceinces) was added. The samples were again incubated for 5 minutes, and then centrifuged at 2000 rpm for 5 minutes. Supernatant was discarded and the cell pellet was resuspended in 500 μL of PBS. The samples were analyzed on the flow cytometer for CD107a^+ NK cells (CD56+).

Chain of CYP3A4 (P08684 whole entry): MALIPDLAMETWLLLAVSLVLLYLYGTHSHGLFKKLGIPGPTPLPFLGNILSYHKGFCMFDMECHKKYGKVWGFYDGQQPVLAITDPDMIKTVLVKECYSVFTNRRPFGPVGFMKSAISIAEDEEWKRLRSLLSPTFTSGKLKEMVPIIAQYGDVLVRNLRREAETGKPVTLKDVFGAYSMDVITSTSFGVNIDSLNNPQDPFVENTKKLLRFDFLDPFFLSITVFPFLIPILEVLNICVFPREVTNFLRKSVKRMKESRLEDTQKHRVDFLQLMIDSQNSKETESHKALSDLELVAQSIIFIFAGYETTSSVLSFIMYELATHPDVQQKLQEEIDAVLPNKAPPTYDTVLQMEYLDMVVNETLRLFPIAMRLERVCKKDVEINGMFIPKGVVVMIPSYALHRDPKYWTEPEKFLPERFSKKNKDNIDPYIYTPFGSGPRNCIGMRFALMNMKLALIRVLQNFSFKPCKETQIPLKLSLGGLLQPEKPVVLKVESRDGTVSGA
T1 sequence (P35991 whole entry): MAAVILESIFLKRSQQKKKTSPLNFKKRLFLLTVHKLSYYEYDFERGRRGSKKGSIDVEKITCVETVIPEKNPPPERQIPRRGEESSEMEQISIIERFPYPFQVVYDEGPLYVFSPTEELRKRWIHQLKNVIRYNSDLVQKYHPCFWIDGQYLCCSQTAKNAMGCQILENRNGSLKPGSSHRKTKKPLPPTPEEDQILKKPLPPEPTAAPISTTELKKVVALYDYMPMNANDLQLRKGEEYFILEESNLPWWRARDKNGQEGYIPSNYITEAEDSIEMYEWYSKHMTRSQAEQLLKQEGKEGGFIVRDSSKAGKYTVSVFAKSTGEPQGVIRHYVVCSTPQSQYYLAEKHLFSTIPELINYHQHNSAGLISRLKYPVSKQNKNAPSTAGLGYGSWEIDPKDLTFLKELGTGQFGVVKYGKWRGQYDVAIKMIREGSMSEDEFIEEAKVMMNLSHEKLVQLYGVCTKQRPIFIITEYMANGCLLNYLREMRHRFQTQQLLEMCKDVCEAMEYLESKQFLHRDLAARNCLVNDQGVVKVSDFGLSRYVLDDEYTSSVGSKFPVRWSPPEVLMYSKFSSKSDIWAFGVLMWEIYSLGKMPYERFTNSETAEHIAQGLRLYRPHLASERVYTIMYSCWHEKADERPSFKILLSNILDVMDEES

Structure (SMILES): CC#CC(=O)N1CCC[C@H]1c1nc(-c2ccc(C(=O)Nc3ccccn3)cc2)c2c(N)nccn12 [Formula (II), (S)-4-(8-amino-3-(1-(but-2-ynoyl)pyrrolidin-2-yl)imidazo[1,5-a]pyrazin-1-yl)-N-(pyridin-2-yl)benzamide]
- GPVI platelet aggregation ([1]; FIG. 22 and FIG. 23): does not
- IC50 ([1]; Homo sapiens, Platelet, FIG. 22): 1150 nM
- effect on thrombus formation [2]: does not interfere with thrombus formation
- immunosuppressive tumor associated myeloid cells and Tregs ([3]; pancreatic tumor-bearing mice): reduce immunosuppressive tumor associated myeloid cells and Tregs
- tumor volume ([3]; vs vehicle): statistically significant reductions in tumor volume
- CD8+ cells in tumor tissues [4]: significant increase
- immunosuppressive TAMs, MDSCs and Tregs in tumor tissues [4]: significantly reduced
- pancreatic cancer growth and animal survival [4]: substantially slowed pancreatic cancer growth and increased animal survival
- survival at day 14 [4]: 6/6
- survival at day 28 [4]: 5/6
- average tumor volume at day 28 ([4]; predose average 165 mm^3): 272 mm^3
- inhibition of trastuzumab-stimulated NK cell degranulation (NK cells [5]; 1 μM, HER18 target cells): no inhibitory effect
- reduction of rituximab-stimulated NK cell degranulation (NK cells [5]; DHL-4 target cells): < 2%
- body temperature, cardiovascular, ECG (including QT interval) parameters [6]: no meaningful changes
- CYP metabolism (CYP3A4): metabolized by CYP3A4
- glutathione binding and depletion [7]: binds to glutathione but does not deplete glutathione
- EC50 (B cell receptor): 8.2 nM
- in vivo potency, inhibition of activation markers [8]: more potent at inhibiting expression of activation makers than ibrutinib
- irreversible BTK occupancy in granulocytic and monocytic MDSC (BTK): Complete BTK occupancy
- CD8+ T cell function as % cytotoxicity (CD8+ T cells): no effect on CD8^+ T cell function
- reduction of obinutuzumab-stimulated NK cell degranulation (NK cells [9]): minimal effect
